Measurements: patent publication US20180338980A1, “AROMATIC SULFONAMIDE DERIVATIVES” (BAYER PHARMA AKTIENGESELLSCHAFT, priority 2015, published 2018)

Biological target: T1, P2X4 (Homo sapiens, UniProt Q99571)
T1 sequence (Q99571 1-388): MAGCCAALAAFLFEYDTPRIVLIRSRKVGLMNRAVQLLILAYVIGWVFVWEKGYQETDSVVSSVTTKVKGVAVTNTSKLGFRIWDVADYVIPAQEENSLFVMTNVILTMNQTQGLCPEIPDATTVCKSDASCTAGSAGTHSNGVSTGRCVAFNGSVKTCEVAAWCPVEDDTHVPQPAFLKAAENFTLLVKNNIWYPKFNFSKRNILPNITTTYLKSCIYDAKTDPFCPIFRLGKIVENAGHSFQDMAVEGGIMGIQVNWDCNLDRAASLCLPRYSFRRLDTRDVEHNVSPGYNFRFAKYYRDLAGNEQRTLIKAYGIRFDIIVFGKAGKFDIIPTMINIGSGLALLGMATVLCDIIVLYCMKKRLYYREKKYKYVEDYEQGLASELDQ
Assay: Assay B: human P2X4 receptor cell line, mitochondrial photina luminescence (agonist Bz-ATP at EC50)
Assay type: cell-based
Parameters: host or cells: HEK 293 (recombinant, constitutively expressing; with mitochondrial photina in Assay B)
Conditions: HEK human P2X4 cell line, photina luminescence, agonist Bz-ATP at EC50, average; for Emax: read-out: human P2X4 Assay B avg Efficacy
Protocol: The identification of agonists and antagonists of the P2X4 receptor from humans and […] also the quantification of the activity of the compounds of the invention was performed by use of recombinant cell lines. […] The test cell lines constitutively express the mouse or human P2X4 receptors. Stimulation of the receptors with an agonist leads to a conformational change of P2X4 and influx of extracellular calcium ions through the ion channel. The cytoplasmatic calcium transient is detected via the calcium sensitive dye Fluo8 for the mouse P2×4 cell line or in case of the human P2×4 cell line a stably expressed calcium-sensitive photoprotein, mitochondrial photina, which, after reconstitution with the cofactor coelenterazine, emits light in dependence of calcium binding [Bovolenta S, Foti M, Lohmer S, Corazza S., J Biomol Screen. […] The strength of Fluo8 fluorescence signal or photina luminescence signal corresponds to the level of receptor activation. An inhibitor would decrease the signal depending on its potency and concentration.
The resulting light signal is measured immediately in the luminometer.

Compound	IC50	Emax
NS(=O)(=O)c1cc(NC(=O)Cc2ccccc2Cl)ccc1Oc1ccc[nH]c1=O [Example 075, 2-(2-Chlorophenyl)-N-{4-[(2-oxo-1,2-dihydropyridin-3-yl)oxy]-3-sulfamoylphenyl}acetamide]	2.23 µM	77%
NS(=O)(=O)c1cc(NC(=O)Cc2ccccc2)ccc1Oc1ccccc1Cl [Example 076, N-[4-(2-Chlorophenoxy)-3-sulfamoylphenyl]-2-phenylacetamide]	–	74%
NS(=O)(=O)c1cc(NC(=O)Cc2ccccc2)ccc1Oc1cncc(Cl)c1 [Example 078, N-{4-[(5-Chloropyridin-3-yl)oxy]-3-sulfamoylphenyl}-2-phenylacetamide]	0.706 µM	86%
NS(=O)(=O)c1cc(NC(=O)Cc2ccccc2SC(F)(F)F)ccc1Oc1cccc(Cl)c1 [Example 090, N-[4-(3-Chlorophenoxy)-3-sulfamoylphenyl]-2-{2-[(trifluoromethyl)sulfanyl]phenyl}acetamide]	0.442 µM	71%
Cc1ccncc1CC(=O)Nc1ccc(Oc2cccc(Cl)c2)c(S(N)(=O)=O)c1 [Example 092, N-[4-(3-Chlorophenoxy)-3-sulfamoylphenyl]-2-(4-methylpyridin-3-yl)acetamide]	3.44 µM	57%
NS(=O)(=O)c1cc(NC(=O)C(F)(F)c2ccccc2)ccc1Oc1cccc(Cl)c1 [Example 106, N-[4-(3-Chlorophenoxy)-3-sulfamoylphenyl]-2,2-difluoro-2-phenylacetamide]	0.524 µM	42%
NS(=O)(=O)c1cc(NC(=O)Cc2cc(C(F)(F)F)ccc2Cl)ccc1Oc1cccc(Cl)c1 [Example 109, N-[4-(3-Chlorophenoxy)-3-sulfamoylphenyl]-2-[2-chloro-5-(trifluoromethyl)phenyl]acetamide]	0.825 µM	56%
NS(=O)(=O)c1cc(NC(=O)Cc2cnc(Cl)cc2Cl)ccc1Oc1cccc(Cl)c1 [Example 111, N-[4-(3-Chlorophenoxy)-3-sulfamoylphenyl]-2-(4,6-dichloropyridin-3-yl)acetamide]	0.273 µM	48%
NS(=O)(=O)c1cc(NC(=O)Cc2ncccc2Cl)ccc1Oc1cccc(Cl)c1 [Example 112, N-[4-(3-Chlorophenoxy)-3-sulfamoylphenyl]-2-(3-chloropyridin-2-yl)acetamide]	0.289 µM	60%
NS(=O)(=O)c1cc(NC(=O)Cc2cc(Cl)ccc2Cl)ccc1Oc1cccc(Cl)c1 [Example 114, N-[4-(3-Chlorophenoxy)-3-sulfamoylphenyl]-2-(2,5-dichlorophenyl)acetamide]	0.305 µM	64%
NS(=O)(=O)c1cc(NC(=O)Cc2c(Cl)cc(C(F)(F)F)c(F)c2F)ccc1Oc1cccc(Cl)c1 [Example 115, 2-[6-Chloro-2,3-difluoro-4-(trifluoromethyl)phenyl]-N-[4-(3-chlorophenoxy)-3-sulfamoylphenyl]acetamide]	1.42 µM	54%
Cc1cc(CC(=O)Nc2ccc(Oc3cccc(Cl)c3)c(S(N)(=O)=O)c2)c(Cl)cc1Br [Example 118, 2-(4-Bromo-2-chloro-5-methylphenyl)-N-[4-(3-chlorophenoxy)-3-sulfamoylphenyl]acetamide]	1.89 µM	61%
NS(=O)(=O)c1cc(NC(=O)Cc2cc(F)c(F)cc2Cl)ccc1Oc1cccc(Cl)c1 [Example 123, 2-(2-Chloro-4,5-difluorophenyl)-N-[4-(3-chlorophenoxy)-3-sulfamoylphenyl]acetamide]	0.369 µM	55%
NS(=O)(=O)c1cc(NC(=O)Cc2c(Cl)ccc(Cl)c2Cl)ccc1Oc1cccc(Cl)c1 [Example 125, N-[4-(3-Chlorophenoxy)-3-sulfamoylphenyl]-2-(2,3,6-trichlorophenyl)acetamide]	0.506 µM	97%
Cc1cc(Cl)c(CC(=O)Nc2ccc(Oc3cccc(Cl)c3)c(S(N)(=O)=O)c2)c(Cl)c1 [Example 126, N-[4-(3-Chlorophenoxy)-3-sulfamoylphenyl]-2-(2,6-dichloro-4-methylphenyl)acetamide]	0.467 µM	81%
NS(=O)(=O)c1cc(NC(=O)Cc2c(C(F)(F)F)ccc(Cl)c2Cl)ccc1Oc1cccc(Cl)c1 [Example 127, N-[4-(3-chlorophenoxy)-3-sulfamoylphenyl]-2-[2,3-dichloro-6-(trifluoromethyl)phenyl]acetamide]	1.05 µM	66%
CS(=O)(=O)c1ccc(COc2ccc(NC(=O)Cc3ccccc3Cl)cc2S(N)(=O)=O)cc1 [Example 147, 2-(2-Chlorophenyl)-N-(4-{[4-(methylsulfonyl)benzyl]oxy}-3-sulfamoylphenyl)acetamide]	1.27 µM	69%
NS(=O)(=O)c1cc(NC(=O)Cc2ccccc2Cl)ccc1OCc1ccncn1 [Example 153, 2-(2-Chlorophenyl)-N-[4-(pyrimidin-4-ylmethoxy)-3-sulfamoylphenyl]acetamide]	0.327 µM	93%
NS(=O)(=O)c1cc(NC(=O)Cc2ccccc2Cl)ccc1OCc1ncccn1 [Example 154, 2-(2-Chlorophenyl)-N-[4-(pyrimidin-2-ylmethoxy)-3-sulfamoylphenyl]acetamide]	0.252 µM	77%
NS(=O)(=O)c1cc(NC(=O)Cc2ccccc2Cl)ccc1OCC1COC1 [Example 159, 2-(2-Chlorophenyl)-N-[4-(oxetan-3-ylmethoxy)-3-sulfamoylphenyl]acetamide]	1.18 µM	91%
NS(=O)(=O)c1cc(NC(=O)Cc2ccccc2Cl)ccc1OCC1CCCO1 (stereo not drawn) [Example 161, 2-(2-Chlorophenyl)-N-[3-sulfamoyl-4-(tetrahydrofuran-2-ylmethoxy)phenyl]acetamide]	0.832 µM	74%
NS(=O)(=O)c1cc(NC(=O)Cc2ccccc2Cl)ccc1OCC1CCOC1 (stereo not drawn) [Example 162, 2-(2-Chlorophenyl)-N-[3-sulfamoyl-4-(tetrahydrofuran-3-ylmethoxy)phenyl]acetamide]	0.335 µM	66%

Other lines, results leading:

IC50	Emax	Compound
0.213 µM	57%	NS(=O)(=O)c1cc(NC(=O)Cc2cccc(F)c2)ccc1Oc1cccc(Cl)c1 [Example 084, N-[4-(3-Chlorophenoxy)-3-sulfamoylphenyl]-2-(3-fluorophenyl)acetamide]
0.196 µM	76%	CC(C)c1ccccc1CC(=O)Nc1ccc(Oc2cccc(Cl)c2)c(S(N)(=O)=O)c1 [Example 087, N-[4-(3-Chlorophenoxy)-3-sulfamoylphenyl]-2-(2-isopropylphenyl)acetamide]
0.19 µM	75%	CCOc1ccccc1CC(=O)Nc1ccc(Oc2cccc(Cl)c2)c(S(N)(=O)=O)c1 [Example 088, N-[4-(3-Chlorophenoxy)-3-sulfamoylphenyl]-2-(2-ethoxyphenyl)acetamide]
0.216 µM	68%	NS(=O)(=O)c1cc(NC(=O)Cc2cccnc2Cl)ccc1Oc1cccc(Cl)c1 [Example 093, N-[4-(3-Chlorophenoxy)-3-sulfamoylphenyl]-2-(2-chloropyridin-3-yl)acetamide]
0.2 µM	74%	NS(=O)(=O)c1cc(NC(=O)C(F)(F)c2ccccc2Cl)ccc1Oc1cccc(Cl)c1 [Example 094, N-[4-(3-Chlorophenoxy)-3-sulfamoylphenyl]-2-(2-chlorophenyl)-2,2-difluoroacetamide]
0.203 µM	75%	NS(=O)(=O)c1cc(NC(=O)Cc2ccccc2OC(F)(F)F)ccc1Oc1cccc(Cl)c1 [Example 105, N-[4-(3-Chlorophenoxy)-3-sulfamoylphenyl]-2-[2-(trifluoromethoxy)phenyl]acetamide]
0.175 µM	60%	NS(=O)(=O)c1cc(NC(=O)Cc2c(Cl)cccc2C(F)(F)F)ccc1Oc1cccc(Cl)c1 [Example 108, N-[4-(3-Chlorophenoxy)-3-sulfamoylphenyl]-2-[2-chloro-6-(trifluoromethyl)phenyl]acetamide]
0.164 µM	64%	NS(=O)(=O)c1cc(NC(=O)Cc2ccncc2Cl)ccc1Oc1cccc(Cl)c1 [Example 119, N-[4-(3-Chlorophenoxy)-3-sulfamoylphenyl]-2-(3-chloropyridin-4-yl)acetamide]
0.218 µM	62%	Cc1ccc(Cl)c(CC(=O)Nc2ccc(Oc3cccc(Cl)c3)c(S(N)(=O)=O)c2)c1F [Example 121, 2-(6-Chloro-2-fluoro-3-methylphenyl)-N-[4-(3-chlorophenoxy)-3-sulfamoylphenyl]acetamide]
0.194 µM	72%	N#Cc1ccccc1COc1ccc(NC(=O)Cc2ccccc2Cl)cc1S(N)(=O)=O [Example 145, 2-(2-Chlorophenyl)-N-{4-[(2-cyanobenzyl)oxy]-3-sulfamoylphenyl}acetamide]
